Values of other authors as cited in patent US20050063935A1, “Adsorbent for cytokine, method of adsorptive removal, and apparatus adsorptive removal” (priority 2002, published 2005).

Settings: octanol-water system; free ligand compound before immobilization

Row | Compound | log P
1 | CCCCN [n-butylamine] | 0.97
2 | CCCCCCCCN [n-octylamine] | 2.90
